Laboratory results as given in patent publication US20230036854A1, “HETEROCYCLIC SPIRO-COMPOUNDS AS AM2 RECEPTOR INHIBITORS” (THE UNIVERSITY OF SHEFFIELD, priority 2018, published 2023).

Molecular target: T1, AM2 receptor (1321N1 cells transfected with CALCRL+RAMP3) (Homo sapiens, UniProt O60896+Q16602)
T1 construct: host or cells: 1321N1 cells
Assay: AM2 receptor inhibition, LANCE cAMP agonist-antagonist competition assay
Format: cell-based
Settings: inhibition of AM induced cAMP activation, read-out: AM2 D2 protocol: pIC50 (converted)
Method: Compounds were assessed for their ability to inhibit ligand-induced elevations of cAMP, using the Perkin Elmer LANCE cAMP assay using commercially-available cells expressing a specific receptor of interest using the following general procedure:
Compounds were prepared in dimethyl sulfoxide (DMSO—99.9% pure) (Sigma Aldrich, Cat #: D4540) added to powder stocks to produce a 20 mM solution (100% DMSO) that was sonicated at 37° C. for 10 minutes to fully dissolve the compounds. The 20 mM stocks were diluted further in DMSO to produce a 2 mM solution that was sonicated at 37° C. for 10 minutes. 2 mM stocks were dissolved in assay/stimulation buffer to produce a 400 μM solution that was sonicated at 37° C. for 10 minutes for all cAMP assays. All stocks were stored at −20° C. Then serial dilution (Dilution factor: 10) was performed to achieve the desire experimental concentrations.
Competition assays were performed according to the manufactures instructions using LANCE® TR-FRET cAMP assay kit (Perkin Elmer, Cat #: AD0264). Serial dilutions (3 μl/well) of the molecules were plated in a 384-well OptiPlate (Perkin Elmer, Cat #: 6007299) in duplicates. Appropriate controls (100% stimulation: Forskolin and 0% stimulation: Vehicle control) (6 μl/well) were included in each plate for data normalization. Following the compound addition, 6 μl of G-protein coupled receptor overexpressing cells/Alexa Fluor antibody solution (1:100 dilution) was added in each well at a desired density of 2500cells/well. The overexpressing cell lines were purchased from DiscoveRx, Birmingham, UK. After spinning the plate at 1000 rpm for 1 minute and vortexing briefly, the cells were pre-incubated with the compounds for 30 minutes at room temperature (covered). Then 3 μl of the equivalent peptide ligand (EC50 dose) was added to all the wells except vehicle and forskolin controls. The plate were then spun down at 1000 rpm for 1 minute and once finished they were vortexed briefly and covered. Cells were stimulated in the presence of the ligands for 15 minutes at room temperature. After stimulation 12 μl of detection mix (Europium-Chelate streptavidin/biotinylated cAMP tracer solution) was added to all wells and incubated for 60 minutes at room temperature. The plate was then read on the Enspire multimode Plate reader (Perkin Elmer), at; 320/340 nm excitation and 615/665 nm emission was recorded.
Assay/Stimulation Buffer (30 mL)—pH 7.4 • 28 mL Hank's Balanced salt solution (+MgCl2, +CaCl2)—(Thermo Fisher Cat #:14170112) • 150 μl HEPES (1M)—(Thermo Fisher Cat #:15630080) • 400 μl Stabilizer (DTPA) Purified BSA (7.5%)—(Perkin Elmer, Cat #: CR84-100)
The ability of a compound to inhibit the AM induced cAMP activation in AM2 receptor-expressing cells (1321N1 cells transfected with CALCRL+RAMP3, sourced from DiscoverX catalogue number 95-0169C6) was assessed using the protocol above.

T1 sequence (Q16602 23-461): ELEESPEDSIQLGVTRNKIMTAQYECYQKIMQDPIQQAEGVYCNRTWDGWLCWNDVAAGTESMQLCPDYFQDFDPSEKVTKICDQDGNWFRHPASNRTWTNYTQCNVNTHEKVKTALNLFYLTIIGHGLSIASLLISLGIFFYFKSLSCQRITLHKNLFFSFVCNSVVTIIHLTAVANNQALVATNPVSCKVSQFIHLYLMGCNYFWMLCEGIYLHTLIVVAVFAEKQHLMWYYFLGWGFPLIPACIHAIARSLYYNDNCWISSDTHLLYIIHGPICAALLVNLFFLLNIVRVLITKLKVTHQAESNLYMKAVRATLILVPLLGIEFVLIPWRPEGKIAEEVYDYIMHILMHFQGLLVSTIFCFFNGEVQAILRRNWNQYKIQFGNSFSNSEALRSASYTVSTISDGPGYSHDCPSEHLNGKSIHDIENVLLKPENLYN
T1 sequence (O60896 24-148): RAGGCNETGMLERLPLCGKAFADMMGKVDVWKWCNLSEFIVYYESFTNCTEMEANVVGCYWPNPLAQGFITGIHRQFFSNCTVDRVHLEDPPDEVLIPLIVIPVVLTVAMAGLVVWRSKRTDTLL

| Structure (SMILES) | IC50 [nM] |
| --- | --- |
| CNCc1ccccc1CN(CC(=O)Nc1ccc2c(c1)C[C@@]1(C2)C(=O)Nc2ncccc21)C(=O)C1(C)CCN(C(=O)CN2CCN(C(C)=O)CC2)CC1 [Example 32, (R)-1-(2-(4-Acetylpiperazin-1-yl)acetyl)-4-methyl-N-(2-((methylamino)methyl)benzyl)-N-(2-oxo-2-((2′-oxo-1,1′,2′,3-tetrahydrospiro[indene-2,3′-pyrrolo[2,3-b]pyridin]-5-yl)amino)ethyl)piperidine-4-carboxamide] | 2.34 |
| CNCc1ccccc1CN(CC(=O)Nc1ccc2c(c1)C[C@@]1(C2)C(=O)Nc2ncccc21)C(=O)C1(C)CCN(C(=O)C(F)F)CC1 [Example 17, (R)-1-(2,2-Difluoroacetyl)-4-methyl-N-(2-((methylamino)methyl)benzyl)-N-(2-oxo-2-((2′-oxo-1,1′,2′,3-tetrahydrospiro[indene-2,3′-pyrrolo[2,3-b]pyridin]-5-yl)amino)ethyl)piperidine-4-carboxamide] | 8.32 |
| CNCc1ccccc1CN(CC(=O)Nc1ccc2c(c1)C[C@@]1(C2)C(=O)Nc2ncccc21)C(=O)C1(C)CC2CCC(C1)N2C(C)=O (stereo partly drawn) [Example 148, 8-Acetyl-3-methyl-N-(2-((methylamino)methyl)benzyl)-N-(2-oxo-2-(((R)-2′-oxo-1,1′,2′,3-tetrahydrospiro[indene-2,3′-pyrrolo[2,3-b]pyridin]-5-yl)amino)ethyl)-8-azabicyclo[3.2.1]octane-3-carboxamide] | 2.24 |
| CCC1(C(=O)N(CC(=O)Nc2ccc3c(c2)C[C@@]2(C3)C(=O)Nc3ncccc32)Cc2ccccc2CNC)CCN(C(=O)c2cncs2)CC1 [Example 86, (R)-4-Ethyl-N-(2-((methylamino)methyl)benzyl)-N-(2-oxo-2-((2′-oxo-1,1′,2′,3-tetrahydrospiro[indene-2,3′-pyrrolo[2,3-b]pyridin]-5-yl)amino)ethyl)-1-(thiazole-5-carbonyl)piperidine-4-carboxamide] | 1.26 |
| CNCc1ccccc1CN(CC(=O)Nc1ccc2c(c1)CC1(C2)C(=O)Nc2ncccc21)C(=O)C1(C)CCN(C(C)=O)CC1 (centres unmarked) [Example 1, 1-Acetyl-4-methyl-N-(2-((methylamino)methyl)benzyl)-N-(2-oxo-2-((2′-oxo-1,1′,2′,3-tetrahydrospiro[indene-2,3′-pyrrolo[2,3-b]pyridin]-5-yl)amino)ethyl)piperidine-4-carboxamide 2,2,2-trifluoroacetate] | 2.57 |
| CCC1(C(=O)N(CC(=O)Nc2ccc3c(c2)C[C@@]2(C3)C(=O)Nc3ncccc32)Cc2ccccc2CNC)CCN(C(=O)[C@H]2COCCN2)CC1 [Example 83, 4-Ethyl-N-(2-((methylamino)methyl)benzyl)-1-((R)-morpholine-3-carbonyl)-N-(2-oxo-2-(((R)-2′-oxo-1,1′,2′,3-tetrahydrospiro[indene-2,3′-pyrrolo[2,3-b]pyridin]-5-yl)amino)ethyl)piperidine-4-carboxamide] | 56.2 |
| CNCc1ccccc1CN(CC(=O)Nc1ccc2c(c1)CC1(C2)C(=O)Nc2ncccc21)C(=O)C1(C)CCN(C(=O)N2CCCC2)CC1 (centres unmarked) [Example 51, 4-Methyl-N-[[2-(methylaminomethyl)phenyl]methyl]-N-[2-oxo-2-[(2-oxospiro[1H-pyrrolo[2,3-b]pyridine-3,2′-indane]-5′-yl)amino]ethyl]-1-(pyrrolidine-1-carbonyl)piperidine-4-carboxamide] | 2.34 |
| CCC1(C(=O)N(CC(=O)Nc2ccc3c(c2)C[C@@]2(C3)C(=O)Nc3ncccc32)Cc2ccccc2CNC)CCN(C(=O)c2cc(C(C)(C)C)nn2C)CC1 [Example 92, (R)-1-(3-(tert-Butyl)-1-methyl-1H-pyrazole-5-carbonyl)-4-ethyl-N-(2-((methylamino)methyl)benzyl)-N-(2-oxo-2-((2′-oxo-1,1′,2′,3-tetrahydrospiro[indene-2,3′-pyrrolo[2,3-b]pyridin]-5-yl)amino)ethyl)piperidine-4-carboxamide] | 13.2 |
